The source of these data is patent publication US7015323B2, “Thiocarbamate inhibitors of alpha-4 integrins” (Genentech, Inc., priority 2003, dated 2006).

A short description of the data set: Clearance and half life: pharmacokinetics after IV or PO dosing, plasma measured by LC/MS/MS. The following applies: rat; for clearance: clearance from plasma levels (LC/MS/MS, WinNonlin), PEG 400 formulation, route for the table values not stated; for half-life: half life from plasma levels (LC/MS/MS, WinNonlin), route not stated. Type of data set: in vivo. Here is the method:
Jugular Vein Cannulation—Animals are anesthetized via IP injection using Ketamine/Xylazine/saline solution (@ 0.25 mL/kg). Animals are weighed prior to dosing of anesthetic to determine proper dosage. Sterile instruments and aseptic technique are used throughout surgery. This includes wearing a mask, clean lab coat or scrubs and sterile gloves. The ventral and dorsal neck areas are shaved and prepped with betadine and alcohol. A small skin incision is made over the jugular vein. Using blunt dissection techniques, free the intended vessel from surrounding tissue and thread two sutures under the vein. Tie the cranial suture, nick the vessel, insert the catheter, and use the distal suture to secure the catheter. Dissect a subcutaneous passage between the catheter insertion point and the intrascapular space; make a small exit hole at the nape of the neck. Then, using hemastats, pull the cannula through the passage to the dorsal neck area. Confirm that the catheter is still properly placed, flush with appropriate heparin/saline solution, and knot the distal end of the cannula. Place a suture tie around the knot, coil the cannula under the skin and close the dorsal incision, leaving the “tie” slightly exposed for ease of externalizing the catheter. Close the ventral incision. The animal should be recovered on a circulating heating blanket or equivalent and returned to its room when it's able to right itself.
Compounds are formulated with polyethylene glycol 400 (PEG) at 30% (IV) or 60% (PO).
Intravenous (IV) dosing is accomplished with a bolus injection into a lateral tail vein. Animals are restrained using a rat restrainer to minimize mis-dosings and to reduce animal stress. Individual doses are calculated based on body weights taken the morning of the dose. Oral (PO) dosing is accomplished by oral gavage using a 3½ inch stainless steel animal feeding tube. Animals are restrained by grasping gently with our hands to reduce animal stress. Individual doses are calculated based on body weights taken the morning of the dose.
Blood (approximately 0.2 mL) is collected from an jugular cannula. For occasions when the jugular cannula fails, blood is removed from the remaining lateral tail vein. The whole blood was placed into Microtainer® tubes containing K2EDTA anticoagulant. Samples are inverted several times to ensure proper mixing with anticoagulant and are stored on ice until centrifugation. Samples are centrifuged at 10,000×g for 5 minutes and plasma is transferred to 1.5 mL microcentrifuge tube. […]
All plasma samples are measured by LC/MS/MS. All pharmacokinetic parameters, clearance (CL), half life (t½), area under curve (AUC) and maximum conc (Cmax) are determined using WinNonin (version 3.2).

By half-life is commonly meant the time in which the quantity being followed falls by half. In turn, `O=C(N[C@@H](Cc1ccc(OC(=S)N2CCOCC2)cc1)C(=O)O)c1ccccc1Cl` [compound 1] displayed a clearance of 23 mL/min/kg and a half-life of 61 min.
In the same order, the values of `O=C(N[C@@H](Cc1ccc(OC(=O)N2CCOCC2)cc1)C(=O)O)c1ccccc1Cl` [referencecarbamate] are 50 mL/min/kg and 6 min.
